The structures appear in SMILES notation. Where a SMILES comes first, the peptide text is derived from it. The star is where a group is joined. Cbz = O=C(OCc1ccccc1)*

Assay [1] has as its target human CatL (cathepsin-L, CTSL) (Homo sapiens, UniProt P07711). In words: FRET peptide cleavage HTS. The note with it: read-out: % inhibition at 20 uM. It is filed as biochemical.
In the next assay the target is 3CL-Pro (Severe acute respiratory syndrome coronavirus 2, UniProt P0DTD1). Briefly: biochemical.

Sequence of human CatL (cathepsin-L, CTSL) (P07711 114-288): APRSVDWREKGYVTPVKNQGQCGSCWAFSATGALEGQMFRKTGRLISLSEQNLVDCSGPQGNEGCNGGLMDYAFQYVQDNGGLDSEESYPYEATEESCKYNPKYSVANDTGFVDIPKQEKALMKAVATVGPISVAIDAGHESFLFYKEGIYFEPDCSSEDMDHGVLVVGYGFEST
Sequence of human CatL (cathepsin-L, CTSL) (P07711 292-333): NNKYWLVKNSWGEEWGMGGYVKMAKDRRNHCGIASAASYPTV

With `CCCN1CCN(c2ccc(C(=O)NC3(C(=O)NCC#N)CCCCC3)cc2)CC1` [balicatib], the inhibition (in general, the drop in the measured response relative to a control, in per cent) at 20 µM in assay [1] is > 50%. In the case of `C[C@H](NC(=O)[C@H](Cc1ccccc1)NC(=O)OCc1ccccc1)C(=O)CF` [Z-FA-FMK], the IC50 (as a rule, the point on the concentration scale where inhibition reaches its midpoint) against 3CL-Pro was 9.67 µM. In addition, in assay [1], the inhibition at 20 µM was > 50%. With `CC(C)C[C@H](NC(=O)OCc1ccccc1)C(=O)N[C@@H](C[C@@H]1CCNC1=O)C(O)S(=O)(=O)O` (stereo partly drawn) [GC-376], in assay [1], the inhibition at 20 µM was > 50%. `CC(=O)N[C@@H](CC(C)C)C(=O)N[C@@H](CC(C)C)C(=O)N[C@H](C=O)CCCNC(=N)N` [leupeptin hemisulfate]: the inhibition at 20 µM in assay [1] was > 50%.

As to `CC(C)C[C@@H](C=O)NC(=O)[C@H](CC(C)C)NC(=O)[C@H](CC(C)C)NC(=O)OCc1ccccc1` [MG-132] (Cbz-Leu-Leu-Leu-aldehyde), the inhibition at 20 µM in assay [1] was > 50%.
